Experimental data as given in ChEMBL document CHEMBL5465560, “Selectivity Literature for EUbOPEN Chemogenomic Library” (2024).

How the values were obtained:
[1] = molecular target: Mitogen-activated protein kinase 14 (Homo sapiens, UniProt Q16539); test: Selectivity interaction (Kinase panel (KiNativ target engagement assay in Jurkat cells)) EUB0001635a MAPK14; type: cell-based; details: Selectivity number of off-targets 0.0, Selectivity number of targets 233.0, Source Knowledge https://www.sciencedirect.com/science/article/pii/S2451945619300674?via%3Dihub, at 1 µM
[2] = molecular target: T1, Serine/threonine-protein kinase D2 (Homo sapiens) (UniProt Q9BZL6); test: Selectivity interaction (KinomeScan (DiscoverX)) EUB0001049a PRKD2; details: at 1 µM
T1 sequence (whole entry): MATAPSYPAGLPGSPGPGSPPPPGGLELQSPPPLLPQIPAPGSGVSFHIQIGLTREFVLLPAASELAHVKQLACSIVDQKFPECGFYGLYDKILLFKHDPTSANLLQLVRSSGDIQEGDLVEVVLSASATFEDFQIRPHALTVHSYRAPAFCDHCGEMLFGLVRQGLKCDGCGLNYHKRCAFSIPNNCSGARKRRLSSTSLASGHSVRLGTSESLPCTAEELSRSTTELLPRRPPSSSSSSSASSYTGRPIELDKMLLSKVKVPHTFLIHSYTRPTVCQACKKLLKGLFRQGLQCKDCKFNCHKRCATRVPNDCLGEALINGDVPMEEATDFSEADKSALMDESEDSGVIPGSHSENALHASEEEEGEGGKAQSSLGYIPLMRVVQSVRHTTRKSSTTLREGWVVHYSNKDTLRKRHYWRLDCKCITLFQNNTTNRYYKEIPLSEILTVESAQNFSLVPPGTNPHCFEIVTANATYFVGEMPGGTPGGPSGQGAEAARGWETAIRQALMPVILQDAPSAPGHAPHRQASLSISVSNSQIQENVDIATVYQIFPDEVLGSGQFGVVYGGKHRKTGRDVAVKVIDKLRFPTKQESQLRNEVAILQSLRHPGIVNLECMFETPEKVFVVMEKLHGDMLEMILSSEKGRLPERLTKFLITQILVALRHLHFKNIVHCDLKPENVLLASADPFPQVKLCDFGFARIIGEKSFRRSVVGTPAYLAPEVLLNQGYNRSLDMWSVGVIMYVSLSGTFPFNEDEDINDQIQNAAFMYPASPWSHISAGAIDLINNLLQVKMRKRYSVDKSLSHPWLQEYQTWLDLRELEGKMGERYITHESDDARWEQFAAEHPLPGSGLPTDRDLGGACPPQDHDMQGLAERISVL

[3] = molecular target: Tyrosine-protein kinase Lck (Homo sapiens, UniProt P06239); test: Selectivity interaction (Kinase panel (literature)) EUB0001199aCl LCK; details: at 1 µM
[4] = molecular target: T2, Activin receptor type-1B (Homo sapiens) (UniProt P36896); test: Selectivity interaction (KinomeScan (DiscoverX)) EUB0000655a ACVR1B; details: at 10 µM
T2 sequence (whole entry): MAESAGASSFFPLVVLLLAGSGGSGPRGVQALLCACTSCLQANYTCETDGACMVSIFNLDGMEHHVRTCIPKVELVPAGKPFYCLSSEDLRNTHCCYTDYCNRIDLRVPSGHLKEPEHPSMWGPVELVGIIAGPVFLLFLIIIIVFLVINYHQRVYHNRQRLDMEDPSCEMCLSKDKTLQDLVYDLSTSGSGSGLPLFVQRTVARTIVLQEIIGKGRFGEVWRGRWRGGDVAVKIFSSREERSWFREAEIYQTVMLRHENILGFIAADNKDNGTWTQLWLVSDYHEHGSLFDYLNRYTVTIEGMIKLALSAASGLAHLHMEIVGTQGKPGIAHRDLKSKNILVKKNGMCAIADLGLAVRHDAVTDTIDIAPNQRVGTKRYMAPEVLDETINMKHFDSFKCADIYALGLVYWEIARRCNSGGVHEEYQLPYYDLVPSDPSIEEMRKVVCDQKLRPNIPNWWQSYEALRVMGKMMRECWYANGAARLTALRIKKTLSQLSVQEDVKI

[5] = molecular target: T3, Serine/threonine-protein kinase Nek1 (Homo sapiens) (UniProt Q96PY6); test: Selectivity interaction (Ambit KINOMEscan and KiNATiv profiling in Jurkat cells) EUB0000090b NEK1; type: cell-based; details: at 1 µM
T3 sequence (whole entry): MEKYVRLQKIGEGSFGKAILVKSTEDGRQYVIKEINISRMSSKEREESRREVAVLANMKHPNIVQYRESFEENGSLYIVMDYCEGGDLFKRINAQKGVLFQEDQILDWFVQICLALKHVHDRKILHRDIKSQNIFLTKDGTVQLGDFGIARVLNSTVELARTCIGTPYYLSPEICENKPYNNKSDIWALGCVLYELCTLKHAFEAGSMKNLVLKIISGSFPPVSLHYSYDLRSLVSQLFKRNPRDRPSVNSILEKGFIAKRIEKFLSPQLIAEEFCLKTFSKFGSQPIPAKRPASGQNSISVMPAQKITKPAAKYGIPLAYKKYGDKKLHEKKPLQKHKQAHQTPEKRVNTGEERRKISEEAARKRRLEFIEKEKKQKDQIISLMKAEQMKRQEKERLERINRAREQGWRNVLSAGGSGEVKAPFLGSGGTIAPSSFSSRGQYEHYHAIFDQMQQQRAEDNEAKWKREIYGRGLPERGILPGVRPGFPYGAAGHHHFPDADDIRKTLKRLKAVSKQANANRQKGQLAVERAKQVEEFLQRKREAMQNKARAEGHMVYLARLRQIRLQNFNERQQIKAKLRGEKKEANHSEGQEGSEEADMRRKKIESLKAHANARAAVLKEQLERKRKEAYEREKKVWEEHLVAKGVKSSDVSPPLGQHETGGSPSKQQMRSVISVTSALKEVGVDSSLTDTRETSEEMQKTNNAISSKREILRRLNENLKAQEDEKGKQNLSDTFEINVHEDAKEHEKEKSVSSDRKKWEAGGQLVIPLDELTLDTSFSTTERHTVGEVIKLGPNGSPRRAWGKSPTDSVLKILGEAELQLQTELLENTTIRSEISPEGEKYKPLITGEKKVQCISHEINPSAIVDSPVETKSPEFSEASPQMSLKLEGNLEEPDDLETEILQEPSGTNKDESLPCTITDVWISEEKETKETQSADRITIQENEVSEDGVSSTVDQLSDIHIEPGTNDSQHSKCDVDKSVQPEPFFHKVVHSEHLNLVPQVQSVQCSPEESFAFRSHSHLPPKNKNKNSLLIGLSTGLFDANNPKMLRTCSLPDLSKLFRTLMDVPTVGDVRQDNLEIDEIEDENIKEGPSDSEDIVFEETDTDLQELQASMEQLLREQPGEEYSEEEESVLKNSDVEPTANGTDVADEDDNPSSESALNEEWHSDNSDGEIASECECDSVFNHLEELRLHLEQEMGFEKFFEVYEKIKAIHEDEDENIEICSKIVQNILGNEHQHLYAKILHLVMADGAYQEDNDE

Chain of Tyrosine-protein kinase Lck (P06239 2-509 limits assumed): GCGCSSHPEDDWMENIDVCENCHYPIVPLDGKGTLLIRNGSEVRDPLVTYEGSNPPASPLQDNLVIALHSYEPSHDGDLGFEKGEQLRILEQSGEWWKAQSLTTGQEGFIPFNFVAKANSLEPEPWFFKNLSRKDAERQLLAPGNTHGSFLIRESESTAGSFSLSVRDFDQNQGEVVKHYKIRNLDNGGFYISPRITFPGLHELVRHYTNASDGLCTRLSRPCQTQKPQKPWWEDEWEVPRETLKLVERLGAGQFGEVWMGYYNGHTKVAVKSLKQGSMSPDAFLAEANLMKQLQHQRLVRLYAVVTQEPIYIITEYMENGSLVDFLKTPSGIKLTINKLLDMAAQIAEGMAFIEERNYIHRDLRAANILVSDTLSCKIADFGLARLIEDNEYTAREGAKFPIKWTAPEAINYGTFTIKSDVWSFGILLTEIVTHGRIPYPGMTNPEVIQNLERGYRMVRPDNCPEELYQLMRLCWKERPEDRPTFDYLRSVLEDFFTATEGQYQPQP
Chain of Mitogen-activated protein kinase 14 (Q16539 whole entry): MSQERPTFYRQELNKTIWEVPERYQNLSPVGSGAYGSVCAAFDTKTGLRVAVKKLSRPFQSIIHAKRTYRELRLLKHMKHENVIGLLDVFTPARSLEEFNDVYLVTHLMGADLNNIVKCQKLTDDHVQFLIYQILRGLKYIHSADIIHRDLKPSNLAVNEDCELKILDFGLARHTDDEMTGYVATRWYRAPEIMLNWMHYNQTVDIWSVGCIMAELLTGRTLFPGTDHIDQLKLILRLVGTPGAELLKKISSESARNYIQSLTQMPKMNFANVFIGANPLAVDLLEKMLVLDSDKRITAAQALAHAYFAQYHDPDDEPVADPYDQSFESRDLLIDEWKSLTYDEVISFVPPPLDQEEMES

C=CC(=O)Nc1ccc(C(=O)Nc2[nH]nc3c2CN(C(=O)N[C@H](CN(C)C)c2ccccc2)C3(C)C)cc1
% of engagement [1]: -6.9%

COc1cc(Nc2nc(C)cc(-c3cnn4nc(OC)ccc34)n2)cc(C(F)(F)F)c1
% of control [2]: 100%

CN1Cc2nccc(-c3cn(C)nc3-c3ccc(F)cc3)c2C1=O
% of inhibition [3]: 7%

CN(C)CCOc1ccc(-c2nc(-c3ccncc3)c(-c3ccc4c(c3)CC/C4=N\O)[nH]2)cc1
% of control [4]: 40%

CN(C)C/C=C/C(=O)Nc1ccc(C(=O)N2CCCC(Nc3ncc(Cl)c(-c4c[nH]c5ccccc45)n3)C2)cc1 (stereo not given)
% of control [5]: 100%
